{"source": "paper PMC2009863", "about": "“Pharmacokinetic considerations in testing hypoxic cell radiosensitizers in mouse tumours” (British Journal of Cancer, 1979)", "key": {"[1]": {"settings": "cited from earlier work"}, "[2]": {"assay": "Whole blood MIS and Ro-05-9963 by HPLC after MIS in control, sham-operated and kidney-ligated mice", "settings": "for half-life: mouse, in vivo, 5 mmol/kg, plasma half-life", "description": "(§1) Several groups are now pursuing such a goal (Adams, 1977; Brown et al., 1978; Wardman, 1977). […] Specifically the two ques- tions were: (a) How much does the plasma half-life affect the peak plasma level? (b) How much does the plasma half-life affect the tumour/plasma ratio of drug concentrations? MATERIALS AND METHODS A description of the procedures for implanta- tion of tumours, and irradiation and assay of the viability of the tumour cells has been published previously (Brown, 1975). Brieflv, the EMT6/St/lu tumour was transplanted into 3-month-old, syngeneic BALB/c female mice, weighing 20-25 g, and irradiated at a diameter of 6-7 mm. Immediately after irradiation the tumours were removed and minced. The only modification was that the single-cell suspensions were prepared by a 30 min disaggregation using an enzyme \"'cock- tail\" of 0-05% pronase, 0.02% DNAase and 21 0 02% collagenase (Brown et al., in prepara- tion). Cell viability was assayed by plating appropriate dilutions of the tumour cells into Waymouth's medium containing 15% foetal calf serum in polystyrene Petri dishes, and counting colonies 13 days later. […] Bilateral kidney ligation was performed on anaesthetized mice by exteriorizing the kidneys through a 1 cm incision in the skin and abdominal wall and tying a ligature around the renal artery and vein at the renal pelvis. The abdominal incision, which was adjoining and parallel to the line of attach- ment of the abdominal wall with the dorsal muscles, was then closed tightly with 4 or 5 stitches, and the skin incision closed with metal clips. The sham operation was identical in all respects except for ligation of the renal artery and vein. […] Plasma (or whole blood) and tumour levels of 2-nitroimidazoles were determined in different ways in the two laboratories rep- resented. In the first method, represented in Tables I and II and Fig. 1, tumour and plasma levels were determined on killing of individual mice, and were measured spectrophotomet- rically using UV absorption at 318 nm. This measures the total concentration of all 2-nitroimidazoles in the sample. The pro- cedure used was a modification of that described by Chapman et al. (1974). To measure plasma levels, 0 4 ml of plasma (collected from heparinized whole blood by cardiac puncture at the time of killing) was added to 2-6 nil absolute ethanol. The mixture was vortexed for 1 min, allowed to stand for 10 min and then centrifuged for 5 min at high speed (1000 g). Tumour levels were determined by preparing a 20% (w/v) homogenate of tumour in distilled water, and adding a 0 4 ml aliquot of homogenate to 2-6 ml absolute ethanol as described above. […] At appropriate times after MIS administration, serial blood samples were taken from the tail of the same mouse. Duplicate 5 /A samples were collected in Microcap pipettes (Drummond Scientific Company), mixed with 45 µl water and stored at -20?C. Finally (usually at 10-12-5 h) the mice were bled by cardiac puncture and the undiluted heparinized whole blood was stored at -20?C."}, "[3]": {"settings": "cited from earlier work; for tumour concentration as % of corresponding plasma concentration: clinical studies, HPLC, after MIS administration, ref Wiltshire et al."}, "[4]": {"description": "Several groups are now pursuing such a goal (Adams, 1977; Brown et al., 1978; Wardman, 1977). […] Specifically the two ques- tions were: (a) How much does the plasma half-life affect the peak plasma level? (b) How much does the plasma half-life affect the tumour/plasma ratio of drug concentrations? MATERIALS AND METHODS A description of the procedures for implanta- tion of tumours, and irradiation and assay of the viability of the tumour cells has been published previously (Brown, 1975). Brieflv, the EMT6/St/lu tumour was transplanted into 3-month-old, syngeneic BALB/c female mice, weighing 20-25 g, and irradiated at a diameter of 6-7 mm. Immediately after irradiation the tumours were removed and minced. The only modification was that the single-cell suspensions were prepared by a 30 min disaggregation using an enzyme \"'cock- tail\" of 0-05% pronase, 0.02% DNAase and 21 0 02% collagenase (Brown et al., in prepara- tion). Cell viability was assayed by plating appropriate dilutions of the tumour cells into Waymouth's medium containing 15% foetal calf serum in polystyrene Petri dishes, and counting colonies 13 days later. […] Bilateral kidney ligation was performed on anaesthetized mice by exteriorizing the kidneys through a 1 cm incision in the skin and abdominal wall and tying a ligature around the renal artery and vein at the renal pelvis. […] Plasma (or whole blood) and tumour levels of 2-nitroimidazoles were determined in different ways in the two laboratories rep- resented. In the first method, represented in Tables I and II and Fig. 1, tumour and plasma levels were determined on killing of individual mice, and were measured spectrophotomet- rically using UV absorption at 318 nm. […] Tumour levels were determined by preparing a 20% (w/v) homogenate of tumour in distilled water, and adding a 0 4 ml aliquot of homogenate to 2-6 ml absolute ethanol as described above. […]"}, "[5]": {"assay": "Acute toxicity LD50/2d of MIS and Ro-05-9963", "settings": "mouse, in vivo", "description": "Several groups are now pursuing such a goal (Adams, 1977; Brown et al., 1978; Wardman, 1977). […] Specifically the two ques- tions were: (a) How much does the plasma half-life affect the peak plasma level? (b) How much does the plasma half-life affect the tumour/plasma ratio of drug concentrations? MATERIALS AND METHODS A description of the procedures for implanta- tion of tumours, and irradiation and assay of the viability of the tumour cells has been published previously (Brown, 1975). Brieflv, the EMT6/St/lu tumour was transplanted into 3-month-old, syngeneic BALB/c female mice, weighing 20-25 g, and irradiated at a diameter of 6-7 mm. Immediately after irradiation the tumours were removed and minced. […] Plasma (or whole blood) and tumour levels of 2-nitroimidazoles were determined in different ways in the two laboratories rep- resented. In the first method, represented in Tables I and II and Fig. 1, tumour and plasma levels were determined on killing of individual mice, and were measured spectrophotomet- rically using UV absorption at 318 nm. […] Tumour levels were determined by preparing a 20% (w/v) homogenate of tumour in distilled water, and adding a 0 4 ml aliquot of homogenate to 2-6 ml absolute ethanol as described above. […]"}, "[6]": {"parameters": "method as in Adams et al., 1976; Brown et al., 1978", "settings": "ref Adams et al., 1976; Brown et al., 1978; cited from earlier work"}, "[7]": {"system": "V-79 cells", "settings": "cited from earlier work"}, "[8]": {"assay": "Plasma and tumour levels of total 2-nitroimidazoles, UV spectrophotometric assay at 318 nm, EMT6 tumour-bearing mice, normal or bilateral kidney ligation", "settings": "for Plasma concn. / Tumour concn.: Table I, 5 mmol/kg i.p.; for Plasma concn. / Tumour concn. / Plasma concentration / Tumour concentration: individual mice; for Plasma concentration, Mean / Tumour concentration, Mean / Plasma concentration / Tumour concentration: Table II, 5 mmol/kg", "description": "as §1"}, "[9]": {"settings": "BKL Yes, 38 min after injection"}}, "note": "“And” between values parts separate entries of the source, which are not always exact repeats. Identical values can stand only once. Like-named read-outs stand apart in the source and are kept apart here."}
{"compound": "COCC(O)Cn1ccnc1[N+](=O)[O-]", "note": "(stereo not drawn) [MIS, 1-(2-nitroimidazol-1-yl)-3-methoxypropan-2-ol]", "values": [{"measurement": "uptake of (2-14C) MIS as % of plasma concentration", "setting": "[1]; MT mouse tumour and some normal mouse tissues, particularly at less than 6 h, ref Flockhart et al. (1978c)", "result": "less than 100%"}, {"measurement": "tumour concentration as % of that in blood", "setting": "[1]; different mouse tumours, ref McNally et al. (1978)", "result": "18-72%"}, {"measurement": "half-life", "setting": "[2]; BALB/c, bilateral kidney ligation before injection", "result": "10 to 11", "unit": "h"}, {"measurement": "half-life", "setting": "[2]; BALB/c, normal mice", "result": "~2", "unit": "h"}, {"measurement": "half-life", "setting": "[2]; ip, bilateral kidney ligation before injection", "result": 10, "unit": "h"}, {"measurement": "glucuronide conjugates of MIS and Ro-05-9963 in plasma", "setting": "[2]; normal and sham-operated mice after MIS", "result": "not found"}, {"measurement": "tumour concentration as % of corresponding plasma concentration", "setting": "[3]; 1978, Workman et al., 1978b", "result": "50-70%"}, {"measurement": "tumour concentration as % of plasma levels", "setting": "[3]; human tumours, ref Gray et al., 1976, Dische et al., 1977, Urtasun et al.", "result": "42-107%"}, {"measurement": "half-life in man", "setting": "[3]; plasma, ref Foster et al., 1975, Dische et al., 1977, Wiltshire et al., 1978, Workman et al., 1978b", "result": "~12", "unit": "h"}, {"measurement": "rectal temperature below uninjected mice", "setting": "[4]; 9 h after MIS injection, controls", "result": "≤ 3", "unit": "°C"}, {"measurement": "rectal temperature below the uninjected level", "setting": "[4]; 9 h after MIS injection, kidney-ligated mice", "result": 7, "unit": "°C"}, {"measurement": "rectal temperature drop", "setting": "[4]; first 5 h after MIS injection, all 3 groups", "result": 5.0, "unit": "°C"}, {"measurement": "LD50 at 2 d", "setting": "[5]", "result": 1830, "unit": "mg/kg"}]}
{"compound": "O=[N+]([O-])c1nccn1CC(O)CO", "note": "(stereo not drawn) [Ro-05-9963, 1-(2-nitroimidazol-1-yl)-2,3-pro-pandiol]", "values": [{"measurement": "proportion of Ro-05-9963 to total non-conjugated 2-nitroimidazoles", "setting": "[2]; 38 min after MIS injection, control and nephrectomized mice", "result": 5, "unit": "%"}, {"measurement": "proportion of Ro-05-9963 to total non-conjugated 2-nitroimidazoles", "setting": "[2]; 6.5 h after MIS injection, nephrectomized mice", "result": 22, "unit": "%"}, {"measurement": "proportion of Ro-05-9963 to total non-conjugated 2-nitroimidazoles", "setting": "[2]; 6.5 h after MIS injection, normal mice", "result": 24, "unit": "%"}, {"measurement": "tumour concentration as % of corresponding plasma concentration", "setting": "[3]; 1978, Workman et al., 1978b", "result": "50-70%"}, {"measurement": "lipophilicity compared with MIS", "setting": "[6]", "result": "considerably less lipophilic"}, {"measurement": "radiosensitizing effectiveness compared with MIS", "setting": "[7]; V-79 cells in vitro, ref Adams et al. (1976)", "result": "slightly less effective"}, {"measurement": "radiosensitizing effectiveness compared with MIS", "setting": "[7]; in vitro, ref Flockhart et al. (1968b)", "result": "slightly more so"}, {"measurement": "tumour levels lower than plasma concentration", "setting": "[8]; EMT6 tumour", "result": "30-40%"}, {"measurement": "plasma half-life", "setting": "[8]; Fig. 1, normal BALB/c mice, equal peak plasma levels: MIS 5 mmol/kg, Ro-05-9963 10 mmol/kg i.p.", "result": 0.55, "unit": "h"}, {"measurement": "Plasma concn.", "setting": "[8]; 30 min after inj.", "result": "2 to 8 mM and 2 to 4 mM and 2 to 6 mM"}, {"measurement": "Tumour concn.", "setting": "[8]; 30 min after inj.", "result": "0-77 mM and 1.5 mM and 1-1 mM"}, {"measurement": "Plasma concn.", "setting": "[8]; 37.5 min after inj.", "result": "2-4 mM (2×) and 2-5 mM and 0-88 mM"}, {"measurement": "Tumour concn.", "setting": "[8]; 37.5 min after inj.", "result": "2-4 mM and 1-7 mM (2×)"}, {"measurement": "Plasma concn.", "setting": "[8]; 45 min after inj.", "result": "1 to 5 mM and 0 to 38 mM and 1 to 2 mM"}, {"measurement": "Tumour concn.", "setting": "[8]; 45 min after inj.", "result": "0 to 74 mM and 0 to 76 mM and 0 to 25 mM"}, {"measurement": "Plasma concentration, Mean", "setting": "[8]; BKL No, 38 min after injection", "result": "1000 to 4000", "unit": "µM"}, {"measurement": "Tumour concentration, Mean", "setting": "[8]; BKL No, 38 min after injection", "result": "1-1 mM"}, {"measurement": "Plasma concentration, Mean", "setting": "[8]; BKL Yes, 6 h after injection", "result": "4000 to 8000", "unit": "µM"}, {"measurement": "Tumour concentration, Mean", "setting": "[8]; BKL Yes, 6 h after injection", "result": "2 to 8", "unit": "mM"}, {"measurement": "Plasma concentration", "setting": "[8]; BKL No, 38 min after injection", "result": "0 to 42 mM and 0 to 51 mM and 1 to 93 mM and 2 to 16 mM and 2 to 36 mM and 1 to 27 mM"}, {"measurement": "Tumour concentration", "setting": "[8]; BKL No, 38 min after injection", "result": "0 to 24 mM and 0 to 25 mM and 2 to 35 mM and 1 to 30 mM and 1 to 58 mM and 0 to 90 mM"}, {"measurement": "Plasma concentration", "setting": "[8]; [9]", "result": "4.7 mM (2×) and 5.4 mM and 4-9 mM"}, {"measurement": "Tumour concentration", "setting": "[8]; [9]", "result": "4.3 mM and 2 to 4 mM and 2 to 8 mM and 1 to 6 mM"}, {"measurement": "Plasma concentration", "setting": "[8]; BKL Yes, 6 h after injection", "result": "5.9 mM and 4 to 6 mM and 4 to 7 mM"}, {"measurement": "Tumour concentration", "setting": "[8]; BKL Yes, 6 h after injection", "result": "2 to 3 mM and 2 to 9 mM and 3 to 7 mM"}, {"measurement": "plasma and tumour concentrations less than those of MIS, factor", "setting": "[8]; equimolar injected doses, normal mice", "result": "≥ 2"}]}
